Earlier results in PMC5289470, “The biodistribution of 5-[^18F]fluoropyrazinamide in Mycobacterium tuberculosis-infected mice determined by positron emission tomography” (PLoS ONE, 2017).

Test system: PZA-resistant M. tuberculosis isolates
Settings: ref [14], [30]; cited from earlier work

SMILES: NC(=O)c1cnc(Cl)cn1 [5-Cl-PZA, 5-Chloropyrazinamide]
- in vitro activity against PZA-resistant M. tuberculosis isolates: has in vitro activity
